Measured values as given in paper PMC10467108, “Of Seven New K^+ Channel Inhibitor Peptides of Centruroides bonito, α-KTx 2.24 Has a Picomolar Affinity for Kv1.2” (Toxins, 2023).
pKd: −log10 of the molar value. Read-outs that look alike come from different tables or passages of the source. Where a SMILES comes first, the peptide text is derived from it. Bridges are numbered along the chain shown (N, C = ends).

How the values were obtained:
hKv1.2 = target: T1, hKv1.2 (Homo sapiens, UniProt P16389); experiment: Whole-cell patch-clamp of Kv1.2 currents in transiently transfected CHO cells; format: cell-based; settings: for pKd / Hill coefficient H, Kv1.2 block: Hill fit of RCF vs toxin concentration, n ≥ 3; for pKd: cumulative application, pulses to +50 mV from -120 mV, read-out: Kd for Kv1.2
T1 construct: GFP (C); host or cells: CHO cells, transient transfection (Lipofectamine 2000)
T1 sequence (P16389 whole entry): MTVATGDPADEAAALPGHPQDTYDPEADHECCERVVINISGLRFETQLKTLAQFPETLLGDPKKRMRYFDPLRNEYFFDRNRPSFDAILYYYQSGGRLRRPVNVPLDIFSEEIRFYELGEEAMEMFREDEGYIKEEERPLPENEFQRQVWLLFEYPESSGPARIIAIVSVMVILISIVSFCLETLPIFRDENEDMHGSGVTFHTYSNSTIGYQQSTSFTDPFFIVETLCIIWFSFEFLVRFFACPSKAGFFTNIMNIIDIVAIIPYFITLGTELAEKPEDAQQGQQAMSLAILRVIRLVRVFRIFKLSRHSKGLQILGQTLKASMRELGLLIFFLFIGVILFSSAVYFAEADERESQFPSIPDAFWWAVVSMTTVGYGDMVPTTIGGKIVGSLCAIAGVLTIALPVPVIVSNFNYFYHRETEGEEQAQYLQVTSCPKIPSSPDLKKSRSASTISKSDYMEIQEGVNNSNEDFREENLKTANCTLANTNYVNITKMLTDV
Description: (§1) Macroscopic Kv1.1 and Kv1.2 currents were measured in transiently transfected CHO cells. For Kv1.3 current recording, human T lymphocytes were activated by Phytohemagglutinin A (PHA) to increase Kv1.3 channel expression, and micro-pipettes were filled with Ca^2+-free solution to prevent KCa3.1 channel activation. K^+ currents were evoked by applying 15-ms-long depolarization pulses to +50 mV from a holding potential of −120 mV except for Kv1.2, as it has highly variable activation kinetics; therefore, 15–500 ms-long pulses were applied to maximize the open probability of Kv1.2 channel. CboK peptide toxins were dissolved in a freshly prepared extracellular solution and applied to the whole-cell patch-clamped cells using a micro perfusion system at 200 μL/min flow rate.
(§2) CHO cells were transiently transfected by using Lipofectamine 2000 kit (Invitrogen, Carlsbad, CA, USA), as per the manufacturer’s protocol with vector pCMV6-AC-GFP (cat# RG211000 and RC222200; OriGene Technologies, Rockville, MD, USA) encoding hKv1.1 (hKCNA1 gene) or hKv1.2 (hKCNA2 gene) ion channels. Cells were grown under standard conditions in an incubator at 37 °C and 5% CO2 for 24 h. GFP-positive transfected cells were identified by utilizing a Nikon TMS fluorescence microscope (Nikon, Tokyo, Japan) using bandpass filters of 455–495 nm and 515–555 nm for excitation and emission, respectively.
(§3) The patch-clamp technique was used for measuring whole-cell currents in voltage-clamped mode using standard protocols. Electrophysiological recordings were acquired by using Multiclamp 700B amplifier connected to a personnel computer with an Axon Digidata1440 digitizer (Molecular Devices, Sunnyvale, CA, USA). Pipettes were pulled from GC150F-15 borosilicate capillaries (Harvard Apparatus, Kent, UK) having 3−5 MΩ tip resistance in the bath solution. All current recordings were carried out at room temperature (20−25 °C) and only those currents were recorded and subjected to analyses when the leak current at holding potential was <5% of peak current at the test potential. Current traces were lowpass-filtered by utilizing the built-in analog four-pole Bessel filters of the amplifiers and were sampled at 20 kHz which is at least twice the filter cut-off frequency. A gravity-driven perfusion system was used to perfuse the cells with control and test solutions and excess fluid was removed continuously through vacuum suction. The extracellular solution (bath solution) contained 145 mM NaCl, 5.5 mM glucose, 5 mM KCl, 2.5 mM CaCl2, 1 mM MgCl2, and 10 mM HEPES, having pH of 7.35 and an osmolarity between 302 and 308 mOsM/L. Toxins were dissolved in bath solution at different molar concentrations and supplemented with 0.1 mg/mL of bovine serum albumin BSA (Sigma-Aldrich, Budapest, Hungary). The intracellular solution (pipette filling) was comprised of 140 mM KF, 2 mM MgCl2, 1 mM CaCl2, 10 mM HEPES, and 11 mM EGTA, with a pH of 7.22 and an osmolarity of ~295 mOsM/L.
(§4) Generally, to evoke the Kv1.xcurrents, 15-ms-long depolarization pulses to +50 mV from a holding potential of −120 mV were applied, and the current traces were recorded after every 15 s. However, in the case of Kv1.2, due to its variable activation kinetics, the duration of the depolarization pulse was set between 15 and 500 ms to attain the saturated peak current.

Kv1.3 [1] = target: T2, Kv1.3 (Homo sapiens, UniProt P22001); experiment: Whole-cell patch-clamp of Kv1.3 currents in PHA-activated human T lymphocytes; format: cell-based
T2 construct: endogenous in cells
T2 sequence (P22001 whole entry): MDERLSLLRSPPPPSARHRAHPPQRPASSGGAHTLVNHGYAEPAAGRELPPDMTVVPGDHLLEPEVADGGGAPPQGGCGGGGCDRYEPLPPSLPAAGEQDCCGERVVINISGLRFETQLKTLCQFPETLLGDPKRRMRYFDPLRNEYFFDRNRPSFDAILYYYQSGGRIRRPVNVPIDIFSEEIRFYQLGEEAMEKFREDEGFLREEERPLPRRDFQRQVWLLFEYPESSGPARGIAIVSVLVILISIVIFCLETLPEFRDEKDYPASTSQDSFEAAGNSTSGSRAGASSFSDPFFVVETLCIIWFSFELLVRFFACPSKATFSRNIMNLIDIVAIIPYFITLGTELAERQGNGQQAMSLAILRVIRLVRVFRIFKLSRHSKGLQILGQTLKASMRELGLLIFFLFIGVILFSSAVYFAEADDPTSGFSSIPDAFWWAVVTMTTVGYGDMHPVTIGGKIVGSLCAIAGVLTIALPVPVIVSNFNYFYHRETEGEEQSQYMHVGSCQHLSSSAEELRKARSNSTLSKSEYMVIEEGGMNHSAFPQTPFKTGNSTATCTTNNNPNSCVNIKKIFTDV
Description: as §1
Isochronal RCF data points obtained this way (isochronal RCF = I4ms/I4ms,0 where I4ms,0 and I4ms are the currents at 4 ms time point in the absence and presence of CboK peptides, respectively) at different toxin concentrations were fitted with the Hill equation to obtain concentration–response curves as shown in Figure 6H.
Human peripheral venous blood was acquired from anonymous healthy volunteers from the blood bank. Blood samples were collected by having approval from the Ethical Committee of the Hungarian Medical Research Council (36255-6/2017/EKU). PBMCs were separated by Histopaque 1077 (Sigma-Aldrich, Budapest, Hungary) separation technique, and isolated cells, at the density of 5 × 10^5 cells, were cultured in RPMI 1640 media (Gibco, Grand Island, NY, USA) supplemented with 10% FBS (Sigma-Aldrich, Budapest, Hungary), 2 mM L-glutamine, […], and […] penicillin in a humidified incubator at 37 °C and 5% CO2 for 3–6 days. A measure of 2, 5, or 10 μg/mL of Phytohemagglutinin A (PHA) (Sigma-Aldrich, Budapest, Hungary) was added in cultured cells to activate the PBMCs and upregulate the Kv1.3 expression.
as §3, with “suction.” for “suction. The extracellular solution (bath solution) contained 145 mM NaCl, 5.5 mM glucose, 5 mM KCl, 2.5 mM CaCl2, 1 mM MgCl2, and 10 mM HEPES, having pH of 7.35 and an osmolarity between 302 and 308 mOsM/L. Toxins were dissolved in bath solution at different molar concentrations and supplemented with 0.1 mg/mL of bovine serum albumin BSA (Sigma-Aldrich, Budapest, Hungary). The intracellular solution (pipette filling) was comprised of 140 mM KF, 2 mM MgCl2, 1 mM CaCl2, 10 mM HEPES, and 11 mM EGTA, with a pH of 7.22 and an osmolarity of ~295 mOsM/L.”

hKv1.1 = target: T3, hKv1.1 (Homo sapiens, UniProt Q09470); experiment: Whole-cell patch-clamp of Kv1.1 currents in transiently transfected CHO cells; format: cell-based; settings: for effect on Kv1.1 currents: 100 nM toxin; for pKd: this study, screened at 100 nM, read-out: Kd Values Kv1.1 (symbol)
T3 construct: host or cells: CHO cells, transient transfection (Lipofectamine 2000)
T3 sequence (Q09470 whole entry): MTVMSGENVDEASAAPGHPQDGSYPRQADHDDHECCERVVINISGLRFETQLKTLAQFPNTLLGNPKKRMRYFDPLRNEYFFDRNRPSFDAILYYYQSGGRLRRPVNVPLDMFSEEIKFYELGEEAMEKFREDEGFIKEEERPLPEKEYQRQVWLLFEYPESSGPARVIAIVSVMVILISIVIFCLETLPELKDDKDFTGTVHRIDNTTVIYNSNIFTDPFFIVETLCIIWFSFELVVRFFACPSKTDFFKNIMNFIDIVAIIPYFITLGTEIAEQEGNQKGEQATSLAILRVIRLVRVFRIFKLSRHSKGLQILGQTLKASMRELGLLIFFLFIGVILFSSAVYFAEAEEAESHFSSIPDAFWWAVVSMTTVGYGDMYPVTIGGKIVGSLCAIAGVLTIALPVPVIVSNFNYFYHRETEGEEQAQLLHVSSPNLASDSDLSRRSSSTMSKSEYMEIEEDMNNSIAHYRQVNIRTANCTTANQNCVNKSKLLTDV
Description: as §1, §2, §3, §4

Kv1.3 [2] = settings: no reference given; read-out: Kd for Kv1.3 (positive control concentration equivalent to Kd); cited from earlier work
Kv1.1 = target: Kv1.1; parameters: method as in 3 sources, ref 40 (CoTx1), 32 (CoTx2) ||| ref 33 = [33]; PMID 26921461; doi:10.1016/j.toxicon.2016.02.017; 33. Olamendi-Portugal T. Bartok A. Zamudio-Zuñiga F. Balajthy A. Becerril B. Panyi G. Possani L.D. Isolation, chemical and functional characterization of several new K+-channel blocking peptides from ||| ref 33 (II-x toxins), 40 (CoTx1); settings: no reference given; read-out: Kd for Kv1.1 (positive control concentration equivalent to Kd); cited from earlier work
Kv1.2 = target: Kv1.2; parameters: method as in 7 sources, ref 40 (CoTx1), 33 (II-x toxins), 45, 46 (Maurotoxin) ||| ref 32 (CoTx2), 33 (II-10.9), 34 (Ce3) ||| ref 33 (II-x toxins), 47, 48 (Pi4) ||| ref 33 (II-10.4), 32 (CoTx2) ||| ref 33 = [33]; PMID 26921461; doi:10.1016/j.toxicon.2016.02.017; 33. Olamendi-Portugal T. Bartok A. Zamudio-Zuñiga F. Balajthy A. Becerril B. Panyi G. Possani L.D. Isolation, chemical and functional characterization of several new K+-channel blocking peptides from ||| ...; settings: cited from earlier work
Description: Macroscopic Kv1.1 and Kv1.2 currents were measured in transiently transfected CHO cells.

Kv1.2 (Homo sapiens) = Kv1.2 (Homo sapiens) (UniProt P16389); settings: cited from earlier work
Chain of Kv1.2 (Homo sapiens) (P16389 whole entry): as the sequence (P16389 whole entry) above

Chain of CoTx1 (O46028 29-60): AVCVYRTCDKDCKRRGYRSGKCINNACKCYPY

## CC[C@H](C)[C@H](N)C(=O)N[C@@H](Cc1ccccc1)C(=O)N[C@H](C(=O)N[C@@H](CC(N)=O)C(=O)N[C@H](C(=O)N[C@@H](CCCCN)C(=O)N[C@H]1CSSC[C@@H]2NC(=O)[C@H](CCCCN)NC(=O)CNC(=O)CNC(=O)[C@H](C)NC(=O)[C@H](Cc3c[nH]cn3)NC(=O)[C@H](CCC(N)=O)NC(=O)CNC(=O)[C@H](Cc3ccccc3)NC(=O)[C@H](CCCNC(=N)N)NC(=O)[C@H](CC(=O)O)NC(=O)[C@H](CCCCN)NC(=O)[C@@H]3CSSC[C@@H](C(=O)N[C@@H](Cc4ccc(O)cc4)C(=O)N4CCC[C@H]4C(=O)O)NC(=O)[C@H](CCCCN)NC(=O)[C@H](CSSC[C@H](NC(=O)[C@H](CCC(N)=O)NC(=O)[C@H](CCC(N)=O)NC(=O)[C@@H]4CCCN4C(=O)[C@H](CC(C)C)NC(=O)[C@H](CO)NC1=O)C(=O)N[C@@H](CC(C)C)C(=O)N[C@@H](CCCNC(=N)N)C(=O)N1CCC[C@H]1C(=O)N3)NC(=O)[C@H](CCCCN)NC(=O)CNC(=O)[C@H](CC(N)=O)NC(=O)[C@H]([C@@H](C)CC)NC2=O)C(C)C)[C@@H](C)CC [CboK5] (H-IFINVKCSLPQQCLRPCKDRFGQHAGGKCINGKCKCYP-OH; disulfide 7-29, 13-34, 17-36 (inferred); N-terminus and C-terminus assumed)
hKv1.2; 1 nM toxin, steady-state block, representative cell (Figure 4B, 5A)
  inhibition of Kv1.2 current, representative traces: ~ 75%
hKv1.2; 1 nM toxin, wash with toxin-free control solution
  reversibility of Kv1.2 block: completely reversed
hKv1.2; equilibrium block
  pKd: 9.42
hKv1.2
  Hill coefficient H, Kv1.2 block: 1.2
Kv1.3 [1]; approximate, concentration-response data not obtained for CboK5, read-out: Kd for Kv1.3 (CboK5)
  pKd: 6.90
hKv1.1
  effect on Kv1.1 currents: did not inhibit
  pKd: < 7.00

## CC[C@H](C)[C@@H]1NC(=O)[C@@H]2CSSC[C@H](NC(=O)[C@H](CCCCN)NC(=O)[C@@H](NC(=O)[C@H](CC(N)=O)NC(=O)[C@@H](NC(=O)[C@@H](NC(=O)[C@@H](N)[C@@H](C)O)[C@@H](C)O)[C@@H](C)CC)C(C)C)C(=O)N[C@@H](CO)C(=O)N[C@@H](CC(C)C)C(=O)N3CCC[C@H]3C(=O)N[C@@H](CCC(N)=O)C(=O)N[C@@H](CCC(N)=O)C(=O)N[C@H]3CSSC[C@H](NC(=O)[C@H](CCCCN)NC(=O)CNC(=O)[C@H](CC(N)=O)NC1=O)C(=O)N[C@@H](CCCCN)C(=O)N[C@H](C(=O)N[C@@H](Cc1ccc(O)cc1)C(=O)N1CCC[C@H]1C(=O)O)CSSC[C@H](NC(=O)[C@@H]1CCCN1C(=O)[C@H](CCCNC(=N)N)NC(=O)[C@H](CC(C)C)NC3=O)C(=O)N[C@@H](CCCCN)C(=O)N[C@@H](CC(=O)O)C(=O)N[C@@H](CCCNC(=N)N)C(=O)N[C@@H](Cc1ccccc1)C(=O)NCC(=O)N[C@@H](CCC(N)=O)C(=O)N[C@@H](Cc1c[nH]cn1)C(=O)N[C@@H](C)C(=O)NCC(=O)NCC(=O)N[C@@H](CCCCN)C(=O)N2 [CboK6] (H-TTINVKCSLPQQCLRPCKDRFGQHAGGKCINGKCKCYP-OH; disulfide 7-29, 13-34, 17-36 (inferred); N-terminus and C-terminus assumed)
hKv1.2; equilibrium block
  pKd: 9.23
hKv1.2
  Hill coefficient H, Kv1.2 block: 1.3
Kv1.3 [1]; Hill fit of isochronal RCF (4 ms), n ≥ 3
  Hill coefficient H, Kv1.3 block: 0.77
Kv1.3 [1]; Hill fit of isochronal RCF (current at 4 ms), 15-ms pulses to +50 mV from -120 mV, n ≥ 3, read-out: Kd for Kv1.3
  pKd: 6.80
hKv1.1
  effect on Kv1.1 currents: does not block
  pKd: < 7.00

## CC[N+](CC)(CC)CC [TEA, tetraethylammonium, reference compound]
Kv1.3 [2]
  pKd: 2.00
Kv1.1
  pKd: 3.52
Kv1.3 [1]; 10 mM TEA, equilibrium block
  reduction in Kv1.3 current by positive control: Approximately 50%
hKv1.1; 0.3 mM TEA, equilibrium block
  reduction in Kv1.1 current by positive control: Approximately 50%

## Charybdotoxin [ChTx, reference compound]
Kv1.2; no reference given, read-out: Kd for Kv1.2 (positive control concentration equivalent to Kd)
  pKd: 7.85
hKv1.2; 14 nM ChTx, equilibrium block
  reduction in Kv1.2 current by positive control: Approximately 50%

## CoTx1 (from UniProt O46028)
Kv1.2 (Homo sapiens)
  pKd: 7.57

## Maurotoxin
Kv1.2; 46 (Maurotoxin), 40 (CoTx1)
  selectivity for Kv1.2 over Kv1.1, literature: ~ 56 fold
  selectivity for Kv1.2 over Kv1.3, literature: 225 fold
Kv1.2; ref 40 (CoTx1), 33 (II-x toxins), 45, 46 (Maurotoxin), read-out: Kd for Kv1.2, literature
  pKd: 9.10
